What is called IC50 is the concentration that gives 50% inhibition. Broadly, the Ki is a measure of affinity in units of concentration, obtained from inhibition or displacement.

In one assay the target is Melanocortin receptor 3 (Homo sapiens, UniProt P41968). In kind it is cell membranes, Membrane. As to conditions: hek293. Also: in other assays of this panel Not Active means under 50% inhibition at 10 µM.
For the next assay, the target named is Carbonic anhydrase 2 (Homo sapiens, UniProt P00918). The experiment in a line: DRUGMATRIX: Carbonic Anhydrase II enzyme inhibition (substrate: 4-Nitrophenyl acetate (4-NPA)). Conditions: erythrocyte; Not Active = under 50% inhibition at 10 µM. In kind it is tissue-based, Erythrocyte.
The nature of assay [1]: DRUGMATRIX: Imidazoline I2, Central radioligand binding (ligand: [3H] Idazoxan). It counts as cell membranes, Rattus norvegicus, Wistar, Cerebral cortex, Membrane. Conditions: Not Active = under 50% inhibition at 10 µM.
Assay [2] addresses T1, Neuropeptide Y receptor type 1 (Homo sapiens, UniProt P25929).
T1 sequence (P25929 whole entry): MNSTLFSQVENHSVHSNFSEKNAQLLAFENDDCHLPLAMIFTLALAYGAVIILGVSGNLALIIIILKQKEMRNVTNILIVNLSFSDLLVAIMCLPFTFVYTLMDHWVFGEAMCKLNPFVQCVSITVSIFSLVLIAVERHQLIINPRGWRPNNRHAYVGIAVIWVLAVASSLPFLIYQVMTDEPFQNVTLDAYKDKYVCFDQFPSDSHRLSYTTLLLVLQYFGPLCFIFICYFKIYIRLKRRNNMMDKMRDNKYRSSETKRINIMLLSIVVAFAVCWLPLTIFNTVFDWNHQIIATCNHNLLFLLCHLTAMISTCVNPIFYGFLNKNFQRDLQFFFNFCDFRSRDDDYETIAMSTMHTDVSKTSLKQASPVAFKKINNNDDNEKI
In kind it is cell membranes, Membrane. Conditions: sk-n-mc.

Assay [3] has as its target T2, Alpha-2C adrenergic receptor (Homo sapiens, UniProt P18825).
T2 sequence (P18825 whole entry): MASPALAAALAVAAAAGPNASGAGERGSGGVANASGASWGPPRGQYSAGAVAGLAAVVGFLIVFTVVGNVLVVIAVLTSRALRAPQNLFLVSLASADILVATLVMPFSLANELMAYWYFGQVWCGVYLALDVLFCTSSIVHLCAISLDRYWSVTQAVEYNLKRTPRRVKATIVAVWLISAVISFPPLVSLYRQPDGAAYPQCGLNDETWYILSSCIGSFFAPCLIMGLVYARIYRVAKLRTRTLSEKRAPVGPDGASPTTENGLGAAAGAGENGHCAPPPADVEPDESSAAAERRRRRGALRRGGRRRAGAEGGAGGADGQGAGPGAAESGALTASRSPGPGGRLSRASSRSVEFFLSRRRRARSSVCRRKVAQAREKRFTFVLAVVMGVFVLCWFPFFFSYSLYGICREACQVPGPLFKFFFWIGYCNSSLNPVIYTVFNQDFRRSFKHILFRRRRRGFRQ
The experiment in a line: DRUGMATRIX: Adrenergic Alpha-2C radioligand binding (ligand: [3H] MK-912). It counts as cell membranes, Sf9, Membrane. As to conditions: sf9.

Assay [4] addresses T3, Cholecystokinin receptor type A (Homo sapiens, UniProt P32238).
T3 sequence (P32238 whole entry): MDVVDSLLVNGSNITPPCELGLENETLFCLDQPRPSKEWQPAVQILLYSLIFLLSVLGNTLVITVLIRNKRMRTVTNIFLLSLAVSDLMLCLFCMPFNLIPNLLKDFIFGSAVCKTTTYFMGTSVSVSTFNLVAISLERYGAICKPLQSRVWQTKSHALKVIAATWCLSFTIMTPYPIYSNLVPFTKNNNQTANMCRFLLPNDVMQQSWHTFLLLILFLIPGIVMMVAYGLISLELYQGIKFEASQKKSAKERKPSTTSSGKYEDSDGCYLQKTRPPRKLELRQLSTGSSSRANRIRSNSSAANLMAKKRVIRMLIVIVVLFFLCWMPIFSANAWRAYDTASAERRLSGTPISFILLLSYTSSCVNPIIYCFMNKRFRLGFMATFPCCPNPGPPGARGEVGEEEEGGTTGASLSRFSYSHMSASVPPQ
In kind it is cell membranes, Membrane. Conditions: 1321-n1.

The next assay concerns the target T4, Calcitonin receptor (Homo sapiens, UniProt P30988). Also: in other assays of this panel Not Active means under 50% inhibition at 10 µM.
T4 sequence (P30988 whole entry): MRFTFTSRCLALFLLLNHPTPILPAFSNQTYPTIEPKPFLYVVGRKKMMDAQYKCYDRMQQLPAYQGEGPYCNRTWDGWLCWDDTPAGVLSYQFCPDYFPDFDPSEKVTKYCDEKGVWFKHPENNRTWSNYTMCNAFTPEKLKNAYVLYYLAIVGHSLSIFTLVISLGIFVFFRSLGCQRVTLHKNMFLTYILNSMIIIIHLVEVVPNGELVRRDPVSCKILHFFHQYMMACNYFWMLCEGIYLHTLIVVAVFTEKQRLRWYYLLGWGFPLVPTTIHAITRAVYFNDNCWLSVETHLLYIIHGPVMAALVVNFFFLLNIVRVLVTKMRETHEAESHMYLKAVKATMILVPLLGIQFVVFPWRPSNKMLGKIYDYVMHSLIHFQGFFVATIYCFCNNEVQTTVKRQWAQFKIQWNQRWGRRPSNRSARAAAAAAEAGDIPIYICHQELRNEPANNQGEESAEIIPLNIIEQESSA
It counts as cell membranes, Membrane. Conditions: t47d.

The target of another assay is Adenosine receptor A2a (Homo sapiens, UniProt P29274). The experiment in a line: DRUGMATRIX: Adenosine A2A radioligand binding (ligand: […]). In kind it is cell membranes, HEK293, Membrane. Conditions: Not Active = under 50% inhibition at 10 µM.
Adenosine receptor A2a, sequence (P29274 whole entry): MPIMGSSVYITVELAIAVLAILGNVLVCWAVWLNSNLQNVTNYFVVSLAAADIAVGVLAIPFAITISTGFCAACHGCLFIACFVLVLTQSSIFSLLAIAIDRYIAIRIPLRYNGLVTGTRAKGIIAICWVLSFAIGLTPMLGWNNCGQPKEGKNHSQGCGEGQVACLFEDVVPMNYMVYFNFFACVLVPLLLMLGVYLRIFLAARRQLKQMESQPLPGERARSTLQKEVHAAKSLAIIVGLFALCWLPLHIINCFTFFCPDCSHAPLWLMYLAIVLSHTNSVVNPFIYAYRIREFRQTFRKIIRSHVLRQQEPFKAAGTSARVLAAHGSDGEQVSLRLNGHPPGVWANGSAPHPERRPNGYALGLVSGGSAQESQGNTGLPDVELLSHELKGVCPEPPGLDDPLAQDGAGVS

Melanocortin receptor 3, sequence (P41968 whole entry): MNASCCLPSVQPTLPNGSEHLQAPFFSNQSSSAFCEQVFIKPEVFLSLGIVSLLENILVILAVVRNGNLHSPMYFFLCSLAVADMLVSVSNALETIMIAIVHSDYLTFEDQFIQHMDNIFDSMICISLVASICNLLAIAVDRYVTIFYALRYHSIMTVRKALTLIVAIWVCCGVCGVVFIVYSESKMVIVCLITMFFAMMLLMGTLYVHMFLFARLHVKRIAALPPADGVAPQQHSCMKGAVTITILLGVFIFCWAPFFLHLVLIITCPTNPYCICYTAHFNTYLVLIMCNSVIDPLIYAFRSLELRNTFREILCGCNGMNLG

As to `COc1ccc2[nH]c([S+]([O-])Cc3ncc(C)c(OC)c3C)nc2c1` (stereo not given) [OMEPRAZOLE], the IC50 entry (against Melanocortin receptor 3; at Carbonic anhydrase 2; in assay [1]; in assay [2]; in assay [3]; in assay [4]) was “Not Active” each time. The half-inhibitory concentration (IC50) entry on Calcitonin receptor and on Adenosine receptor A2a (hek293) was “Not Active” each time. Also, in assay [1], the Ki entry was “Not Active”.

Regarding `Cc1nccn1CC1CCc2c(c3ccccc3n2C)C1=O` (stereo not given) [ONDANSETRON], the IC50 result (at Melanocortin receptor 3; on Carbonic anhydrase 2; in assay [1]; in assay [2]; in assay [3]; in assay [4]) was “Not Active” throughout. Also, the half-maximal inhibitory concentration (IC50) entry at Calcitonin receptor and on Adenosine receptor A2a (hek293) was “Not Active” in each case. Further, the Ki entry in assay [1] is recorded as “Not Active”.

In the case of `CCn1cc(C(=O)O)c(=O)c2cc(F)c(N3CCN(C)CC3)cc21` [PEFLOXACIN], the half-inhibitory concentration (IC50) result (at Melanocortin receptor 3; on Carbonic anhydrase 2; in assay [1]; in assay [2]; in assay [3]; in assay [4]) was “Not Active” in each case. For the same compound, the concentration for half-maximal inhibition (IC50) result at Calcitonin receptor and at Adenosine receptor A2a (hek293) was “Not Active” each time. In addition, the Ki entry in assay [1] is reported as “Not Active”.

Turning to `CCCCOc1ccc(OCCCN2CCOCC2)cc1` [PRAMOXINE], the IC50 entry (at Melanocortin receptor 3; against Carbonic anhydrase 2; in assay [1]; in assay [2]; in assay [3]; in assay [4]) was “Not Active” throughout. Moreover, the IC50 result at Calcitonin receptor and at Adenosine receptor A2a (hek293) was “Not Active” in each case. Besides, the Ki result in assay [1] is “Not Active”.

For the compound `O=C(C1CCCCC1)N1CC(=O)N2CCc3ccccc3C2C1` (stereo not given) [PRAZIQUANTEL], the IC50 entry (at Melanocortin receptor 3; against Carbonic anhydrase 2; in assay [1]; in assay [2]; in assay [3]; in assay [4]) was “Not Active” throughout. The IC50 entry at Calcitonin receptor and at Adenosine receptor A2a (hek293) was “Not Active” throughout. Besides, the inhibition constant Ki entry in assay [1] was “Not Active”.

Take `CCN(CC)CCOC(=O)c1ccc(N)cc1` [PROCAINE]: the IC50 result (against Melanocortin receptor 3; against Carbonic anhydrase 2; in assay [1]; in assay [2]; in assay [3]; in assay [4]) was “Not Active” each time. Besides, the IC50 result at Calcitonin receptor and on Adenosine receptor A2a (hek293) was “Not Active” in each case. In assay [1], the Ki result was “Not Active”.

With `CCCN(CCC)C(=O)C(CCC(=O)O)NC(=O)c1ccccc1` (stereo not given) [PROGLUMIDE], the IC50 entry (at Melanocortin receptor 3; on Carbonic anhydrase 2; in assay [1]; in assay [2]; in assay [3]; in assay [4]) was “Not Active” throughout. In addition, the IC50 result on Calcitonin receptor and at Adenosine receptor A2a (hek293) was “Not Active” throughout. Also, the Ki result in assay [1] is listed as “Not Active”.

As for `NC(=O)c1cnccn1` [PYRAZINAMIDE], the IC50 entry (at Melanocortin receptor 3; against Carbonic anhydrase 2; in assay [1]; in assay [2]; in assay [3]; in assay [4]) was “Not Active” throughout. The IC50 result at Calcitonin receptor and on Adenosine receptor A2a (hek293) was “Not Active” each time. For the same compound, in assay [1], the Ki entry is given as “Not Active”.

`OC(CCN1CCCCC1)(c1ccccc1)C1CCCCC1` (stereo not given) [TRIHEXYPHENIDYL]: the IC50 entry (against Melanocortin receptor 3; at Carbonic anhydrase 2; in assay [1]; in assay [2]; in assay [3]; in assay [4]) was “Not Active” in each case. Also, the half-inhibitory concentration (IC50) entry on Calcitonin receptor and on Adenosine receptor A2a (hek293) was “Not Active” throughout. The Ki result in assay [1] is on record as “Not Active”.

Take `Cc1cc2cc3c(C)cc(=O)oc3c(C)c2o1` [TRIOXSALEN]: the IC50 result (at Melanocortin receptor 3; at Carbonic anhydrase 2; in assay [1]; in assay [2]; in assay [3]; in assay [4]) was “Not Active” throughout. In addition, the IC50 result at Calcitonin receptor was “Not Active”; at Adenosine receptor A2a (read-out: IC50) it was 1310 nM. The Ki entry in assay [1] is “Not Active”; at Adenosine receptor A2a (read-out: Ki), 737 nM.

As for `CCCC(CCC)C(=O)O` [VALPROIC ACID], the IC50 result (against Melanocortin receptor 3; against Carbonic anhydrase 2; in assay [1]; in assay [2]; in assay [3]; in assay [4]) was “Not Active” throughout. Further, the IC50 entry on Calcitonin receptor and on Adenosine receptor A2a (hek293) was “Not Active” in each case. For the same compound, the Ki entry in assay [1] is listed as “Not Active”.

As for `CCC1=C[C@@H]2CN(C1)Cc1c([nH]c3ccccc13)[C@@](C(=O)OC)(c1cc3c(cc1OC)N(C)[C@H]1[C@@](O)(C(=O)OC)[C@H](OC(C)=O)[C@]4(CC)C=CCN5CC[C@]31[C@@H]54)C2` [VINORELBINE], the IC50 entry (at Melanocortin receptor 3; at Carbonic anhydrase 2; in assay [1]; in assay [2]; in assay [3]; in assay [4]) was “Not Active” in each case. In addition, the IC50 entry at Calcitonin receptor and at Adenosine receptor A2a (hek293) was “Not Active” in each case. The Ki result in assay [1] is recorded as “Not Active”.

CADMIUM DICHLORIDE: the IC50 entry (at Melanocortin receptor 3; against Carbonic anhydrase 2; in assay [1]; in assay [2]; in assay [3]; in assay [4]) was “Not Active” throughout. In addition, the IC50 entry at Calcitonin receptor and on Adenosine receptor A2a (hek293) was “Not Active” each time. In addition, the Ki result (at Melanocortin receptor 3; at Carbonic anhydrase 2; in assay [1]; in assay [2]; in assay [3]; in assay [4]) was “Not Active” in each case. In addition, the Ki result on Calcitonin receptor and on Adenosine receptor A2a (hek293) was “Not Active” each time.
